The results in this text go back to article PMC6445123 (Scientific Reports, 2019).

The target of this experiment is T1, Casp6-L200A-LS-SS (Homo sapiens, UniProt P55212, L200A).
T1 construct: obtained by co-expression and purification of LS and SS subunits of WT, L200A or K284A Casp6 from E. coli; His (C); made in house; host or cells: E. coli BL21(DE3)pLysS
T1 sequence (P55212 24-179 limits assumed): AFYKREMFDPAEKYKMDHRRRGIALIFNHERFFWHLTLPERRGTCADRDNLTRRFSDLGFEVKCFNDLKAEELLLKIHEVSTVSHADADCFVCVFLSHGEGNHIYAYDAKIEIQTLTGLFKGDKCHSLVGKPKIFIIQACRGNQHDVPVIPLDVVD
T1 sequence (P55212 194-293 L200A limits assumed): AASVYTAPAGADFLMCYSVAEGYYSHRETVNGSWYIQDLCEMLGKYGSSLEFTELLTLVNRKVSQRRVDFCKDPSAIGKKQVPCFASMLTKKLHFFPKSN
In words: C13 dose-response and global-fit kinetics on Casp6-L200A-LS-SS. Type of experiment: biochemical. The text has this: Figure 4 Compounds S10G and C13 inhibit Casp6 through a noncompetitive mode of inhibition. (a) Michaelis-Menten kinetic plots of Casp6 enzymatic activity in presence of 1% DMSO or increasing doses S10G (top) and C13 (bottom). Data points represent mean ± SD of three independent experiments. (b) Lineweaver-Burk plots of Casp6 inhibition with S10G (top) and C13 (bottom). Red circle indicates the point where lines converge. (c) The relationship between the slopes of lines in Lineweaver-Burk plot analyses in panel (b) and inhibitor concentration. (d) Plots of IC50 values for S10G (top) and C13 (bottom) with varying concentrations of Ac-VEID-AFC substrate. Data points represent mean ± SD from three independent experiments for each substrate concentration. (e) Binding model of C13 into CASP6 putative allosteric site, derived from molecular docking. Left: C13 (green sticks) occupies the putative allosteric site (white surface and lines; Ala-mutated residues L200 and K284 shown as purple sticks). Right: predicted interactions with Casp6 allosteric pocket residues (pink balls polar, circled blue or red for basic and acidic, respectively. Green balls = hydrophobic. Dotted-arrow: blue and green for backbone and sidechain hydrogen-bond interactions, respectively. Blue shade = solvent exposed area). Dose-response curves of C13 for Casp6-WT and Casp6-K284A (f), and copurified LS and SS of Casp6-WT-LS-SS, Casp6-L200A-LS-SS, and Casp6-K284A-LS-SS (g). Data represent mean ± SD from at least three independent experiments. (h) Global fit of kinetics data to a noncompetitive (mixed) inhibition model for Casp6-WT-LS-SS (left panel, R^2 = 0.9635), Casp6-L200A-LS-SS (middle panel, R^2 = 0.9699), and Casp6-K284A-LS-SS (right panel, R^2 = 0.9794) in the presence of 0–50 µM C13. Data points on the graph represent the mean ± SD, and calculated Ki values represent mean ± standard error (SE) from three independent experiments.
To determine the importance of C13 interactions with L200 and K284 for C13 binding in the Casp6 allosteric pocket, we have generated Casp6-L200A and Casp6-K284A mutants and investigated inhibition with C13. […]
Compounds, S10G (2.5 µM, 4.2 µM, 10 µM), and C13 (5 µM, 14 µM, 50 µM), were added to 20 nM active site titrated Casp6 and enzyme activity was measured with eight different Ac-VEID-AFC substrate concentrations (5.0 μM–200 μM) using fluorescence-based Casp6 activity assay as above. The apparent KM and Vmax values were determined through nonlinear regression analysis of Michaelis-Menten plots (v vs. [S]) using GraphPad Prism 5. The inhibition mode was determined from the pattern of converging Lineweaver-Burk plots (1/v vs. 1/[S])[54]. […]

Where “and” joins values, the source holds several entries; their conditions need not be identical. Identical values can stand only once.

One may read the IC50 as the midpoint of a concentration-inhibition curve. By Ki is commonly meant the dissociation constant of the complex between target and ligand, obtained from inhibition or displacement. High values mean a looser hold on the target, low ones a stronger hold on the target. Regarding `COC(=O)c1cc(CNC(=O)C2Cc3ccccc3O2)cc(NC(=O)c2ccco2)c1` (stereo not shown) [Compound C13], the “fold lower IC50 for Casp6-L200A-LS-SS compared to Casp6-WT-LS-SS” value is reported as 1.4 fold. Moreover, the “inhibition model (best global fit), Casp6-L200A-LS-SS” value (Ac-VEID-AFC hydrolysis, increasing substrate and C13 concentrations) is on record as “noncompetitive (mixed) model inhibition”. Moreover, the IC50 (copurified LS and SS, read-out: IC50 of C13 for Casp6-L200A-LS-SS (Fig. 4g)) was found to be 23.4 ± 4.5 µM. For the same molecule, the Ki (global fit to noncompetitive (mixed) model, 0–50 µM C13, mean ± SE) is 6.82 µM and 6.8 µM.
